In patent US4147861A, “1N-(α-Hydroxy-ω-aminoalkanoyl)- 6'N-methyl-3',4'-dideoxykanamycin B and the production thereof” (Zaidan Hojin Biseibutsu Kagaku Kenkyu Kai, priority 1977, dated 1979):
Converted amounts (≈) assume the structure as drawn. Where two headings read alike, the source gives them in different places.

Experiments:
[1] = tested on: Klebsiella pneumoniae PCT 602; test: Minimum inhibitory concentration, serial dilution method on nutrient agar; type: cell-based; settings: read-out: Minimum Inhibitory Concentrations
Proteus vulgaris OX 19 = test: as above; type: cell-based; settings: read-out: Minimum Inhibitory Concentrations
[2] = tested on: Salmonella enteritidis 1891; test: as above; type: cell-based; settings: Salmonella enterica, read-out: Minimum Inhibitory Concentrations
Bacillus anthracis = test: microbe, parasite or virus in culture; type: cell-based; settings: 18 h, read-out: Minimum Inhibitory Concentrations
[3] = tested on: Bacillus subtilis NRRL B-558; test: Minimum inhibitory concentration, serial dilution method on nutrient agar; type: cell-based; settings: NRRLB558, 37° C., 18 hours, read-out: Minimum Inhibitory Concentrations
Sarcina lutea PCI 1001 = test: as above; type: cell-based; settings: Micrococcus luteus, PCI1001, 18 h, read-out: Minimum Inhibitory Concentrations
[4] = tested on: Escherichia coli K-12 ML 1410 R81; test: as above; type: cell-based; settings: 18 h, read-out: Minimum Inhibitory Concentrations
[5] = tested on: Pseudomonas aeruginosa 99; test: as above; type: cell-based; settings: 37° C., 18 hours, read-out: Minimum Inhibitory Concentrations
[6] = tested on: Pseudomonas aeruginosa TI-13; test: as above; type: cell-based; settings: read-out: Minimum Inhibitory Concentrations
[7] = tested on: Staphylococcus aureus Terajima; test: as above; type: cell-based; settings: 37° C., 18 hours, read-out: Minimum Inhibitory Concentrations
Escherichia coli K-12 = test: as above; type: cell-based; settings: read-out: Minimum Inhibitory Concentrations
[8] = tested on: Bacillus subtilis PCI 219; test: as above; type: cell-based; settings: PCI219, 37° C., 18 hours, read-out: Minimum Inhibitory Concentrations
[9] = tested on: Escherichia coli LA290 R64; test: as above; type: cell-based; settings: LA290R64, 18 h, read-out: Minimum Inhibitory Concentrations
[10] = tested on: Escherichia coli LA290 R55; test: as above; type: cell-based; settings: LA290R55, 18 h, read-out: Minimum Inhibitory Concentrations
[11] = tested on: Shigella dysenteriae JS 11910; test: as above; type: cell-based; settings: JS11910, 18 h, read-out: Minimum Inhibitory Concentrations
Salmonella typhosa T-63 = test: as above; type: cell-based; settings: Salmonella enterica, 18 h, read-out: Minimum Inhibitory Concentrations
[12] = tested on: Escherichia coli K-12 ML 1410; test: as above; type: cell-based; settings: read-out: Minimum Inhibitory Concentrations
[13] = tested on: Bacillus cereus ATCC 10702; test: as above; type: cell-based; settings: Bacillus cereus, ATCC10702, 18 h, read-out: Minimum Inhibitory Concentrations
Escherichia coli W677 = test: as above; type: cell-based; settings: read-out: Minimum Inhibitory Concentrations
Escherichia coli NIHJ = test: as above; type: cell-based; settings: read-out: Minimum Inhibitory Concentrations
[14] = tested on: Mycobacterium smegmatis ATCC 607; test: as above; type: cell-based; settings: Mycolicibacterium smegmatis, ATCC607, 37° C., 18 hours, read-out: Minimum Inhibitory Concentrations
[15] = tested on: Pseudomonas aeruginosa No. 12; test: as above; type: cell-based; settings: Pseudomonas aeruginosa, NO.12, 18 h, read-out: Minimum Inhibitory Concentrations
[16] = tested on: Escherichia coli LA290 R56; test: as above; type: cell-based; settings: LA290R56, 18 h, read-out: Minimum Inhibitory Concentrations
[17] = tested on: Pseudomonas aeruginosa GN315; test: as above; type: cell-based; settings: read-out: Minimum Inhibitory Concentrations
[18] = tested on: Corynebacterium bovis 1810; test: as above; type: cell-based; settings: Corynebacterium bovis, 1810, 18 h, read-out: Minimum Inhibitory Concentrations
Escherichia coli K-12 R5 = test: as above; type: cell-based; settings: K12R5, 18 h, read-out: Minimum Inhibitory Concentrations
[19] = tested on: Escherichia coli K-12 ML 1629; test: as above; type: cell-based; settings: read-out: Minimum Inhibitory Concentrations
[20] = tested on: Klebsiella pneumoniae 22 No. 3038; test: as above; type: cell-based; settings: 37° C., 18 hours, read-out: Minimum Inhibitory Concentrations
Protocol: (§1) The minimum inhibitory concentrations (mcg./ml.) of 1N-(DL-isoseryl)-6'N-methyl-3',4'-dideoxykanamycin B (abbreviated as DL-IS-MDKB); 1N-(L-isoseryl)-6'N-methyl-3',4'-dideoxykanamycin B (abbreviated as L-IS-MDKB); 1N-(L-4-amino-[…])-6'N-methyl-3',4'-dideoxykanamycin B (abbreviated as AHB-MDKB); and 1N-(L-5-amino-2-hydroxyvaleryl)-6'N-methyl-3',4'-dideoxykanamycin B (abbreviated as AHV-MDBK) against various organisms were determined according to serial dilution method using nutrient agar medium at 37° C., the readings being made after 18 hours incubation. For the comparison purpose, the minimum inhibitory concentrations (mcg./ml.) of 1 N-(L-4-amino-2-hydroxybutyryl)-kanamycin A (abbreviated as AHB-KMA) and 1N-([…])-kanamycin B (abbreviated as AHB-KMB) which are known from U.S. Pat. No. 3,781,268 were also determined by the same manner as stated above.

[21] = tested on: Shigella flexneri 4b JS 11811; test: as above; type: cell-based; settings: 4BJS11811, 37° C., 18 hours, read-out: Minimum Inhibitory Concentrations
Protocol: as §1

[22] = tested on: Escherichia coli K-12 ML 1630; test: as above; type: cell-based; settings: K12ML1630, 37° C., 18 hours, read-out: Minimum Inhibitory Concentrations
Protocol: as §1

Shigella sonnei JS 11746 = test: as above; type: cell-based; settings: JS11746, 37° C., 18 hours, read-out: Minimum Inhibitory Concentrations
Protocol: as §1

[23] = tested on: Pseudomonas aeruginosa A3; test: as above; type: cell-based; settings: 37° C., 18 hours, read-out: Minimum Inhibitory Concentrations
Protocol: as §1

[24] = tested on: Staphylococcus aureus FDA 209P; test: as above; type: cell-based; settings: FDA209P, 37° C., 18 hours, read-out: Minimum Inhibitory Concentrations
[25] = tested on: Escherichia coli JR66/W677; test: as above; type: cell-based; settings: Escherichia coli, JR66/W677, 18 h, read-out: Minimum Inhibitory Concentrations
Staphylococcus aureus = test: as above; type: cell-based; settings: 37° C., 18 hours, read-out: Minimum Inhibitory Concentrations
[26] = tested on: kanamycin-resistant bacteria; settings: prior art statement; cited from earlier work

SMILES	MIC (Bacillus anthracis)	MIC [3]	MIC (Sarcina lutea PCI 1001)	MIC [5]	MIC [7]	MIC [8]	MIC [9]	MIC [10]	MIC [11]	MIC (Salmonella typhosa T-63)	MIC [13]	MIC [14]	MIC [15]	MIC [16]	MIC [18]	MIC (Escherichia coli K-12 R5)	MIC [20]	MIC [21]	MIC [22]	activity against kanamycin-resistant bacteria [26]	other results
CNC[C@@H]1CC[C@@H](N)[C@@H](O[C@H]2[C@H](O)[C@@H](O[C@H]3O[C@H](CO)[C@@H](O)[C@H](N)[C@H]3O)[C@H](NC(=O)C(O)CN)C[C@@H]2N)O1 (mixture of isomers) [DL-IS-MDKB, 1N-(DL-isoseryl)-6'N-methyl-3',4'-dideoxykanamycin B]	< 0.2 µg/mL	< 0.2 µg/mL	6.25 µg/mL	25 µg/mL	< 0.2 µg/mL	< 0.2 µg/mL	0.78 µg/mL	3.13 µg/mL	6.25 µg/mL	1.56 µg/mL	3.13 µg/mL	0.39 µg/mL	6.25 µg/mL	0.78 µg/mL	3.13 µg/mL	3.13 µg/mL	3.13 µg/mL	3.13 µg/mL	3.13 µg/mL	–	MIC ([1]; Klebsiella pneumoniae, PCT602, 18 h): 1.56 µg/mL; MIC (Proteus vulgaris OX 19; Proteus vulgaris, OX19, 18 h): 1.56 µg/mL; MIC ([2]; ENTERITIDIS, 18 h): 3.13 µg/mL; MIC [4]: 3.13 µg/mL; MIC ([6]; TI13, Pseudomonas aeruginosa TI-13, 37° C., 18 hours): 12.5 µg/mL; MIC (Escherichia coli K-12; Escherichia coli, K12, 18 h): 1.56 µg/mL; MIC ([12]; Escherichia coli, K12ML1410, 18 h): 3.13 µg/mL; MIC (Escherichia coli W677; Escherichia coli, W677, 18 h): 1.56 µg/mL; MIC (Escherichia coli NIHJ; Escherichia coli, 18 h): 1.56 µg/mL; MIC ([17]; Pseudomonas aeruginosa GN315, 37° C., 18 hours): 12.5 µg/mL; MIC ([19]; Escherichia coli, K12ML1629, 18 h): 1.56 µg/mL; MIC (Shigella sonnei JS 11746): 3.13 µg/mL; MIC [23]: 3.13 µg/mL; MIC [24]: 0.78 µg/mL; MIC [25]: 3.13 µg/mL; MIC (Staphylococcus aureus): < 0.2 µg/mL
NC[C@@H]1CC[C@@H](N)[C@@H](O[C@H]2[C@H](O)[C@@H](O[C@H]3O[C@H](CO)[C@@H](O)[C@H](N)[C@H]3O)[C@H](N)C[C@@H]2N)O1 [3',4'-dideoxykanamycin B, 3',4'-Dideoxykanamycin B]	–	–	–	–	–	–	–	–	–	–	–	–	–	–	–	–	–	–	–	active against a large number of kanamycin-resistant bacteria	–
CNC[C@@H]1CC[C@@H](N)[C@@H](O[C@H]2[C@H](O)[C@@H](O[C@H]3O[C@H](CO)[C@@H](O)[C@H](N)[C@H]3O)[C@H](N)C[C@@H]2N)O1 [6'N-methyl-3',4'-dideoxykanamycin B, 6'N-Methyl-3',4'-dideoxykanamycin B]	–	–	–	–	–	–	–	–	–	–	–	–	–	–	–	–	–	–	–	active against a large number of kanamycin-resistant bacteria	–
NCC[C@H](O)C(=O)N[C@@H]1C[C@H](N)[C@@H](O[C@H]2O[C@H](CN)[C@@H](O)[C@H](O)[C@H]2N)[C@H](O)[C@H]1O[C@H]1O[C@H](CO)[C@@H](O)[C@H](N)[C@H]1O [AHB-KMB, 1N-(L-4-amino-2-hydroxybutyryl)kanamycin B]	–	–	–	–	–	–	–	–	–	–	–	–	–	–	–	–	–	–	–	active against a large number of kanamycin-resistant bacteria	–
CNC[C@@H]1CC[C@@H](N)[C@@H](O[C@H]2[C@H](O)[C@@H](O[C@H]3O[C@H](CO)[C@@H](O)[C@H](N)[C@H]3O)[C@H](NC(=O)[C@@H](O)CCN)C[C@@H]2N)O1 [AHB-MDKB, 1N-(L-4-amino-2-hydroxybutyryl)-6'N-methyl-3',4'-dideoxykanamycin B]	< 0.2 µg/mL	< 0.2 µg/mL	3.13 µg/mL (≈ 5.52 µM)	25 µg/mL (≈ 44.1 µM)	< 0.2 µg/mL	< 0.2 µg/mL	0.78 µg/mL (≈ 1.38 µM)	0.78 µg/mL (≈ 1.38 µM)	3.13 µg/mL (≈ 5.52 µM)	3.13 µg/mL (≈ 5.52 µM)	3.13 µg/mL (≈ 5.52 µM)	0.2 µg/mL (≈ 0.353 µM)	3.13 µg/mL (≈ 5.52 µM)	0.78 µg/mL (≈ 1.38 µM)	3.13 µg/mL (≈ 5.52 µM)	1.56 µg/mL (≈ 2.75 µM)	3.13 µg/mL (≈ 5.52 µM)	3.13 µg/mL (≈ 5.52 µM)	0.78 µg/mL (≈ 1.38 µM)	–	MIC ([1]; PCT602, Klebsiella pneumoniae PCT 602, 37° C., 18 hours): 0.78 µg/mL (≈ 1.38 µM); MIC (Proteus vulgaris OX 19; OX19, Proteus vulgaris OX 19, 37° C., 18 hours): 1.56 µg/mL (≈ 2.75 µM); MIC ([2]; Salmonella enteritidis 1891, 37° C., 18 hours): 1.56 µg/mL (≈ 2.75 µM); MIC ([6]; Pseudomonas aeruginosa, TI13, 18 h): 6.25 µg/mL (≈ 11 µM); MIC (Escherichia coli K-12; K12, Escherichia coli K-12, 37° C., 18 hours): 0.78 µg/mL (≈ 1.38 µM); MIC ([12]; K12ML1410, Escherichia coli K-12 ML 1410, 37° C., 18 hours): 1.56 µg/mL (≈ 2.75 µM); MIC (Escherichia coli W677; Escherichia coli W677, 37° C., 18 hours): 0.78 µg/mL (≈ 1.38 µM); MIC (Escherichia coli NIHJ; Escherichia coli NIHJ, 37° C., 18 hours): 1.56 µg/mL (≈ 2.75 µM); MIC ([17]; Pseudomonas aeruginosa, GN315, 18 h): 6.25 µg/mL (≈ 11 µM); MIC ([19]; K12ML1629, Escherichia coli K-12 ML 1629, 37° C., 18 hours): 1.56 µg/mL (≈ 2.75 µM); MIC (Shigella sonnei JS 11746): 6.25 µg/mL (≈ 11 µM); MIC [23]: 3.13 µg/mL (≈ 5.52 µM); MIC [24]: 0.78 µg/mL (≈ 1.38 µM); MIC [25]: 3.13 µg/mL (≈ 5.52 µM); MIC (Staphylococcus aureus): < 0.2 µg/mL
